Results taken from ChEMBL document CHEMBL1155682, “Cernuosides A and B, two sucrase inhibitors from Pulsatilla cernua” (J Nat Prod, 2000).

Target: Sucrase-isomaltase, intestinal (Rattus norvegicus, UniProt P23739)
Assay: Inhibition of rat intestinal sucrase

Sucrase-isomaltase, intestinal, sequence (P23739 1-1013 limits assumed): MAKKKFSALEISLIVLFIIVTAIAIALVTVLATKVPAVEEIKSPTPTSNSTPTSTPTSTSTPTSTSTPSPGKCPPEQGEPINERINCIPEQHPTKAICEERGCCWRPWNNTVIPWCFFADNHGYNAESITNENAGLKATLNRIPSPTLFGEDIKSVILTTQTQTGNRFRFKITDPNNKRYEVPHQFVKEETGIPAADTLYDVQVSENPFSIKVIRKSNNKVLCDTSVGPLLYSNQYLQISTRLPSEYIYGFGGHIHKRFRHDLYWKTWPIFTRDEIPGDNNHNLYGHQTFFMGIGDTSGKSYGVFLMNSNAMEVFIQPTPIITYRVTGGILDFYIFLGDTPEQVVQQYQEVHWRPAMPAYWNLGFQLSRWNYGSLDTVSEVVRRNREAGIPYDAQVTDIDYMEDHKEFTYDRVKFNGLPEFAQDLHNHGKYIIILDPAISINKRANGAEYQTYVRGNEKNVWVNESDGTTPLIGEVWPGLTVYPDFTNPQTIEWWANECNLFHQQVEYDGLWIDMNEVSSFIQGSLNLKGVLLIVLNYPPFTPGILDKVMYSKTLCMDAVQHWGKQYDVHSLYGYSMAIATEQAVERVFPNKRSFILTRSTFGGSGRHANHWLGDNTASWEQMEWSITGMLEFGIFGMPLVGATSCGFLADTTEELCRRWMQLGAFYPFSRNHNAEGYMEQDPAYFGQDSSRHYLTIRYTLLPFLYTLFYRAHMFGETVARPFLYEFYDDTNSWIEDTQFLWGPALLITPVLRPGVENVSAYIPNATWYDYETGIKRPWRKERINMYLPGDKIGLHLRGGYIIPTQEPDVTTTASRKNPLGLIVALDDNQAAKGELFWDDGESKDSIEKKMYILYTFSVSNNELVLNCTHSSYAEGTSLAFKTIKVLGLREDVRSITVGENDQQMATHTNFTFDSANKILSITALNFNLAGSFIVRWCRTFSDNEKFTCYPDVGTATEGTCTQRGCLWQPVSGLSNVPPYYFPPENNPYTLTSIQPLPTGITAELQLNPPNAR
Sucrase-isomaltase, intestinal, sequence (P23739 1014-1841 limits assumed): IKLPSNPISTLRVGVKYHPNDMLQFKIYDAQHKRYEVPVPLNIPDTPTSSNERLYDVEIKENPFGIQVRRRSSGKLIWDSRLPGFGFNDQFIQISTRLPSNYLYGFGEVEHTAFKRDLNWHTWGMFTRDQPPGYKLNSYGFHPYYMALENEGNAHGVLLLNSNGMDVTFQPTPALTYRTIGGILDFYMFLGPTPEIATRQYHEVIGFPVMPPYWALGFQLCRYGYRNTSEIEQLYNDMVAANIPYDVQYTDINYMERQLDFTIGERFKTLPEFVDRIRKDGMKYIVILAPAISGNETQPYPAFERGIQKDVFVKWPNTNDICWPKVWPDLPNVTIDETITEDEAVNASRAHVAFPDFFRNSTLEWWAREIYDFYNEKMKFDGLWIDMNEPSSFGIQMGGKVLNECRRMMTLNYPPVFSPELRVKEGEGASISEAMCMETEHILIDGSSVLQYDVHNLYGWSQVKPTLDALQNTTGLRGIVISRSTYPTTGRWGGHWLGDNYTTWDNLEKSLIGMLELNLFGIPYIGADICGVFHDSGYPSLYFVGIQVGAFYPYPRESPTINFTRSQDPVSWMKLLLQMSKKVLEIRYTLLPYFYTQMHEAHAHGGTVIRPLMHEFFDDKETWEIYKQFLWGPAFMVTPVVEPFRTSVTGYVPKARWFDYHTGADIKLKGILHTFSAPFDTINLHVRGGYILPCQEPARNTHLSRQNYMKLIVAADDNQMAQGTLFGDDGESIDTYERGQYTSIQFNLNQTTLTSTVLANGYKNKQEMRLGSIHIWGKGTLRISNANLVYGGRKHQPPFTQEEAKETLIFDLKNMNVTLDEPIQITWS

| IC50 [µM] | SMILES |
| --- | --- |
| 59.5 | C[C@@H]1O[C@@H](O[C@H]2[C@H](O)[C@@H](O)[C@H](OC[C@H]3O[C@@H](OC(=O)[C@]45CCC(C)(C)C[C@H]4C4=CC[C@@H]6[C@@]7(C)CC[C@H](O[C@@H]8OC[C@H](O[C@@H]9O[C@H](CO)[C@@H](O)[C@H](O)[C@H]9O)[C@H](O)[C@H]8O[C@@H]8O[C@@H](C)[C@H](O)[C@@H](O[C@@H]9O[C@H](CO)[C@@H](O)[C@H](O)[C@H]9O)[C@H]8O)C(C)(C)[C@@H]7CC[C@@]6(C)[C@]4(C)CC5)[C@H](O)[C@@H](O)[C@@H]3O)O[C@@H]2CO)[C@H](O)[C@H](O)[C@H]1O [CERNUOSIDE A] |
| 45.8 | C[C@@H]1O[C@@H](O[C@H]2[C@H](O)[C@@H](O)[C@H](OC[C@H]3O[C@@H](OC(=O)[C@]45CCC(C)(C)C[C@H]4C4=CC[C@@H]6[C@@]7(C)CC[C@H](O[C@@H]8OC[C@H](O[C@@H]9O[C@H](CO)[C@@H](O)[C@H](O)[C@H]9O)[C@H](O)[C@H]8O[C@@H]8O[C@@H](C)[C@H](O)[C@@H](O[C@@H]9O[C@H](CO)[C@@H](O)[C@H](O)[C@H]9O)[C@H]8O)[C@@](C)(CO)[C@@H]7CC[C@@]6(C)[C@]4(C)CC5)[C@H](O)[C@@H](O)[C@@H]3O)O[C@@H]2CO)[C@H](O)[C@H](O)[C@H]1O [CERNUOSIDE B] |
